The record followed here is PubChem BioAssay AID2305 (GlaxoSmithKline (GSK), 2010).

This experiment relates to P. falciparum 3D7 growth, pLDH absorbance. The experiment is described as follows: P. falciparum 3D7 growth inhibition, dose response, strain 3D7 (AID 2305).

For `CC(=O)Nc1ccc([N+](=O)[O-])c2c(Br)cccc12`, the half-inhibitory concentration (IC50) was 640 nM.
`O=C(CCN1CCCCC1)Nc1ccc(Nc2nccc(NCC(O)c3ccccc3)n2)cc1` (stereo unspecified) came in with an IC50 of 720 nM.
Turning to `COc1cc(C(=O)NC2CC(C)(C)N(C)C(C)(C)C2)ccc1-c1cc2cc(Cl)c(Cl)cc2[nH]1`, the IC50 was 1140 nM.
In turn, `Cn1c(NC(=O)C2CCC(CNC(=O)c3ccc(O)c(-c4ccc(Cl)c(Cl)c4)c3)CC2)nc2ccccc21` (stereo unspecified) returned an IC50 of 650 nM.
Regarding `CC(C)Nc1cc(C(=O)N[C@@H](Cc2ccccc2)[C@H](O)CNC2CCCCC2)cc(N2CCCCS2(=O)=O)c1`, the IC50 was 100 nM.
Regarding `N#Cc1cccc(Nc2nccc(NCC(O)c3cccc(C(F)(F)F)c3)n2)c1` (stereo unspecified), the half-maximal inhibitory concentration (IC50) turned out to be 550 nM.
For `Cc1cc2nc(-c3ccc(/C=C/C(=O)NC4CCCCC4)cc3)[nH]c2cc1C`, the IC50 was 1010 nM.
The value for `COc1ccc(-n2nc(C)cc2C(=O)NCc2ccc(-c3c(C)noc3C)cc2)cc1` was 980 nM.
`NC1CCCN(Cc2cccc(-c3cccc(-c4nc5ccccc5[nH]4)c3)c2)C1` (stereo unspecified) yielded an IC50 of 640 nM.
In turn, `O=C(Cn1cc(C=C2SC(=NC3CCCC3)N(C3CCCC3)C2=O)c2ccccc21)N1CCCC1` came in with an IC50 of 300 nM.
Next, `CCCc1cn2c3c(cc(C(=O)N[C@@H](Cc4ccccc4)[C@H](O)CNC4CCCCC4)cc13)N(CC)S(=O)(=O)CC2`: 80 nM; `COc1ccc2nccc([C@@H](O)CN3CCC(NCCOc4cccc(C(F)(F)F)c4Cl)CC3)c2c1`: 150 nM.
The compound `COc1cc(OC)c(NC(=O)COc2ccc(C)cc2)cc1Cl` displayed an IC50 of 690 nM.
In the case of `N#Cc1ccc2c(c1)CCN(CCC1CCC(Nc3ncnc4ccccc34)CC1)C2` (stereo unspecified), the IC50 was 630 nM.
Turning to `C[C@H](NC(=O)[C@H](Cc1ccccc1)NC(=O)OC(C)(C)C)C(=O)N[C@@H](CC1CCCCC1)C(O)CN` (stereo partly specified), the IC50 was 730 nM.
On to `COc1cccc(-c2cc(C(=O)Nc3ccc4nc(-c5ccccc5)[nH]c4c3)[nH]n2)c1`, for which the IC50 turned out to be 840 nM.
Regarding `O=C(NC1CCCCC1)c1ccc(O)c(-c2cccc(C(F)(F)F)c2)c1`, the concentration for half-maximal inhibition (IC50) is 710 nM.
Next, `NC(=O)c1cccc(C(=O)Nc2cccc(-c3csc(-c4nc5ccccc5[nH]4)c3)c2)c1`: 130 nM; `CCOCCCn1c(=N)c(C(=O)NCc2ccc(OC)cc2)cc2c(=O)n3cccc(C)c3nc21`: 1060 nM; `CCn1c(C(C)C)cc2c3c(N)nc(N)nc3ccc21`: 10 nM.
The compound `CN1CCN(CCCN(Cc2ccc(-c3cccc(CNC4CCCC4)c3)cc2)C(=O)Nc2ccccc2)CC1` gave an IC50 of 1120 nM.
The compound `CC(C)CCNc1nc2ccccc2nc1Nc1cccc(C(F)(F)F)c1` gave an IC50 of 910 nM.
Consider `CC(C)N1CCN(C(CN2CCN(CCCOc3cccc4ccccc34)CC2)c2ccc(F)cc2)CC1` (stereo unspecified), for which the IC50 was found to be 880 nM.
The value for `COc1ccccc1CCNc1nc(C)cc(N[C@@H](CC(C)C)C(=O)NCc2cccc(F)c2)n1` was 970 nM; that for `O=C(NC1CC1)c1ccc(N2CCCCN2CCc2ccccc2)c(C(F)(F)F)c1` was 620 nM.
As for `COc1ccc(NC(=O)/C=C/c2ccccc2Cl)cc1OCCN1CCC(O)(c2ccc(Cl)c(C(F)(F)F)c2)CC1`, the 50% inhibitory concentration (IC50) stood at 640 nM.
Regarding `CNC(=O)c1ccc2[nH]cc(C3CCN(CC4CCC(NC(=O)/C=C/c5ccc(Cl)c(Cl)c5)CC4)CC3)c2c1` (stereo unspecified), the IC50 worked out at 1010 nM.
The compound `Cc1cccc(NC(=O)Nc2cccc(-c3ccc(-c4nc5ccc(C(F)(F)F)cc5[nH]4)cc3)c2)c1` had an IC50 of 900 nM.
Next, `COc1ccc(C(=O)CCC(=O)N(CCC2CCCN2C)Cc2ccc(-c3ccc(CNCCc4ccc(S(C)(=O)=O)cc4)cn3)cc2)cc1F` (stereo unspecified): 870 nM; `COc1ccc2nc(N)nc(C)c2c1`: 930 nM.
Next, `C[C@@H](NC(C)(C)C)[C@H](O)c1ccc(Cl)c(C(F)(F)F)c1`: 740 nM; `O=C(/C=C/c1ccc(Cl)c(Cl)c1)NCCCCCN1CCC(NC(=O)Nc2cccc(Cl)c2F)CC1`: 380 nM; `Cc1[nH]c2ccccc2c1C1=CCN(CCN2CCCc3c(Br)cccc3C2=O)CC1`: 660 nM.
Compound `COc1cc(-n2cnc3cc(-c4ccc(Cl)cc4)sc3c2=O)ccc1OCCN1CCC(c2cccc(NC(C)=O)c2)CC1` showed an IC50 of 550 nM.
With `CC(CN(C)C)C(=O)Nc1ccc(-c2cccc(-c3nc4ccccc4[nH]3)c2)cc1` (stereo unspecified), the IC50 is 720 nM.
Consider `c1ccc(Oc2cccc(Nc3ccnc4ccccc34)c2)cc1`, for which the IC50 amounted to 1110 nM.
In the case of `Cc1cc(Nc2ccc(C)c(Cl)c2)n2nc(C(F)(F)F)nc2n1`, the IC50 turned out to be 20 nM.
`CCCN(c1ccc(C(F)(F)F)cc1[N+](=O)[O-])S(=O)(=O)C(c1ccccc1)c1ccc(C(F)(F)F)cc1[N+](=O)[O-]` (stereo unspecified) came in with an IC50 of 1220 nM.
The value for `CN(CCN)Cc1cccc(-c2cccc(-c3nc4ccc(C(F)(F)F)cc4[nH]3)c2)c1` was 510 nM; that for `COc1ccc(N2CCN(CCCC/C=C/c3ccc(NC(=O)c4cc(Cl)cc(Cl)c4)cc3)CC2)c(OC)c1` was 660 nM; that for `CCN(CCCN1CCCCC1)c1cc(C)nc(Nc2cccc(C(F)(F)F)c2C)n1` was 610 nM.
The value for `CC1CCCN(Cc2c(O)ccc3c(=O)c(-c4nc5ccccc5s4)c(N)oc23)C1` (stereo unspecified) was 140 nM.
The compound `COc1ccc(NC(=O)Nc2ccc(-c3cccc(-c4nc5c(C)cccc5[nH]4)c3)cc2)cc1` came in with a concentration for half-maximal inhibition (IC50) of 140 nM.
Next, `Cc1nc(-c2ccc(-c3ccc(C(=O)Nc4ccc(-n5ccnc5)c(N5CCN(C)CC5)c4)cc3)c(C)c2)no1`: 830 nM.
Next, `Cc1ccc(CN2CCCN(Cc3cccc(NC(=O)c4cc5ccccc5s4)c3)CC2)cc1C`: 730 nM; `O=C(Nc1cccc(N2CCC(NCCCn3ccnc3)CC2)c1)c1cccc(C(F)(F)F)c1`: 1110 nM; `O=C(Nc1cccc(OCc2ccccc2)c1)c1ccc(CN2CCC(Cc3ccccc3)CC2)cc1`: 850 nM.
`Cc1nc(Nc2cc(Cl)ccc2O)nc(Nc2cc(Cl)ccc2O)c1[N+](=O)[O-]` yielded a half-maximal inhibitory concentration (IC50) of 30 nM.
For `COCC(=O)Nc1nc2ccccc2[nH]1`, the IC50 was 300 nM.
Next, `CCc1cn2c3c(cc(C(=O)N[C@@H](Cc4ccccc4)[C@H](O)CNC4CCOCC4)cc13)N(CC(F)(F)F)S(=O)(=O)CC2`: 30 nM; `O=c1n(CC2CCCCC2)c2cc(Cl)cc(OCCNc3ccncc3)c2n1CC1CCCCC1`: 590 nM.
In turn, `COc1ccc2ncc(Cl)c(CCN3CC[C@@H](CNCc4cc5c(cn4)OCS5)C3)c2n1` had an IC50 of 810 nM.
The compound `OCC1CCN(Cc2cccc(C#Cc3cc4ncnc(Nc5ccc(OCc6cccc(F)c6)c(Cl)c5)c4s3)n2)CC1` gave an IC50 of 550 nM.
With `Cc1ccc(O)c(-c2cc(C(=O)Nc3ccc(S(=O)(=O)N4CCCCCC4)cc3)[nH]n2)c1`, the half-inhibitory concentration (IC50) was 710 nM.
On to `O=C(NC1CCCCN(Cc2ccccc2O)C1)c1ccc(-c2ccccc2)cc1` (stereo unspecified), for which the IC50 was determined as 760 nM.
Consider `CCOc1ccc2c(NN=Cc3cc(OC)c(OC)c(OC)c3)cc(C)nc2c1`, for which the concentration for half-maximal inhibition (IC50) came out at 610 nM.
The compound `COc1ccc(-c2ccc(NC(=O)c3cccc(Cl)c3)cc2)cc1CN1CCCC1` displayed an IC50 of 710 nM.
In the case of `CCc1cc2c(Sc3nnc(N)s3)ncnc2s1`, the IC50 stood at 660 nM.
Next, `CN(C)CCCOc1ccc(CN2CC[C@H](NC(=O)c3ccc(Cl)c(Cl)c3)C2)cc1Cl`: 960 nM; `CCNc1cc(C(=O)N[C@@H](Cc2ccccc2)[C@H](O)CNC2C3CC4CC(C3)CC2C4)cc(N2CCCCS2(=O)=O)c1` (stereo partly specified): 670 nM.
Turning to `COc1ccc2nccc(NC(=O)C3(O)CCC(NCc4ccc5c(c4)NCCS5)CC3)c2n1` (stereo unspecified), the half-maximal inhibitory concentration (IC50) turned out to be 600 nM.
Next, `O=S(=O)(NCCN1CCCC1)c1ccc(-c2ccc(CNC3Cc4ccccc4C3)cc2)cc1F`: 1000 nM; `COc1ccc(NC(=O)c2ccc3cc4ccccc4cc3c2)cc1N1CCN(C)CC1`: 1030 nM.
In turn, `Oc1c(CNC2CCCCC2)cc(Cl)c2ccccc12` showed an IC50 of 840 nM.
Next, `COc1ccc2nccc([C@@H](O)CN3CCC(NC(=O)c4ccc(OC)c(N)c4)CC3)c2c1`: 710 nM; `O=C(Nc1cccc(CN2CCCN(Cc3ccc(F)cc3)CC2)c1)c1ccc(Cl)c(Cl)c1`: 960 nM.
In the case of `Nc1cccc(CNCc2cccc(-c3csc(-c4nc5ccccc5[nH]4)c3)c2)c1`, the IC50 stood at 680 nM.
Next, `CCOC(=O)c1ccc2nc(-c3ccc(C(=O)NCc4ccc(C(C)(C)C)cc4)cc3)[nH]c2c1`: 850 nM.
Compound `CCN1CCN(CCCNc2c3ccc(Cl)cc3nc3ccc(O)cc23)CC1` had an IC50 of 570 nM.
As to `CC(=O)Nc1ccc(Cl)c(Cl)c1`, the IC50 worked out at 40 nM.
`Cc1cc(-c2ccc3c(c2)CC[C@@H](N[C@@H](C)c2ccccc2)C3)cnc1N` came in with an IC50 of 1730 nM.
Compound `CC(C)CCN1CCCN(Cc2cccc(NC(=O)c3ccc(-c4ccccc4)cc3)c2)CC1` returned an IC50 of 890 nM.
As for `O=C(c1ccc(O)c(-c2cc(Cl)cc(Cl)c2)c1)N1CCCC1`, the IC50 was 1000 nM.
Take `O=C(C=Cc1ccc(F)cc1)NC1CCC(CCN2CCc3ccc(-c4cnccn4)cc3CC2)CC1` (stereo unspecified): the IC50 came to 690 nM.
In the case of `CCCCCCCN1CC[C@@H](CCCc2ccnc3ccc(OCCCCN=C(N)NO)cc23)[C@@H](CC)C1`, the IC50 is 950 nM.
The value for `O=C1C[C@@H]([S@@](=O)Cc2nccs2)N1CCOCCCCCCc1ccc(Cl)cc1` was 1020 nM; that for `CCC(C)NC(=O)Nc1ccc(-c2cccc(-c3nc4c(C)cccc4[nH]3)c2)cc1` (stereo unspecified) was 190 nM.
`COc1cccc(-c2cc3nc4c(c(NCCCn5ccnc5)n3n2)CCCC4)c1` showed an IC50 of 680 nM.
For the compound `O=C(C=Cc1ccc(Cl)c(Cl)c1)NCCCCCN1CCC(CCNC(=O)/C=C/c2ccccc2)CC1`, the concentration for half-maximal inhibition (IC50) is 780 nM.
For the compound `CC(C(=O)N1CCCC1)N1CCN(C(c2ccccc2)c2ccccc2)CC1` (stereo unspecified), the IC50 worked out at 1100 nM.
The value for `COc1ccc(C(=O)[C@H]2C[C@@H]2CN(C)CC(O)c2cc(C)c(OC)cc2C)cc1` (stereo partly specified) was 970 nM; that for `N#Cc1cc([N+](=O)[O-])ccc1-n1nc(C(N)=O)n(Cc2cccc(F)c2)c1=S` was 720 nM.
`CC(C)(C)c1ccccc1OC(=O)c1ccccc1` returned an IC50 of 740 nM.
The compound `COc1ccc(Nc2ncc3c(-c4cccc(NC(=O)CC(C)C)c4)c[nH]c3n2)cc1OC` had an IC50 of 830 nM.
In the case of `Cc1cccc(C(=O)Nc2ccnc(N3CCCN(Cc4cccc(O)c4)CC3)c2)c1`, the IC50 stood at 1210 nM.
Consider `Cc1cccc(CN2CCC(Oc3ccc(NC(=O)c4cccs4)cc3Cl)CC2)n1`, for which the IC50 came out at 840 nM.

What is called IC50 is the point on the concentration scale where inhibition reaches its midpoint.
